Experimental data reported in PMC8037814, “Polymorphic Characterization, Pharmacokinetics, and Anti-Inflammatory Activity of Ginsenoside Compound K Polymorphs” (Molecules, 2021).
“And” between values parts separate entries of the source, which are not always exact repeats. Identical values can stand only once. Like-named read-outs stand apart in the source and are kept apart here.

Tests used:
[1] = Pharmacokinetics after oral administration of CK polymorphs in rats (20 mg/kg); format: in vivo, Sprague-Dawley rats; details: p.o. 20 mg/kg, individual rats 1-3
Experimental: All samples were analyzed with a triple quadrupole LC-MS/MS (API 4000 LC-MS/MS, AB Sciex, Framingham, MA, USA) coupled with an Agilent 1200 HPLC system (Agilent Technologies, Palo Alto, CA, USA). The MS was equipped with an electrospray system (ESI). The N2 gas temperature and ion-spray voltage were set to 550 °C and 4.5 kV, respectively. CK was measured in multiple reaction monitoring (MRM) mode using a negative electrospray ionization source at m/z 667.4 → 621.2 for CK (CID 25.6 v) and m/z 271.2 → 228.8 for internal standard (IS, (E)-5-(4-fluorostyryl)-2-isopropylbenzene-1,3-diol, Welichem Biotech Inc., Wayburne Drive Burnaby, BC, Canada) (CID 28.3 v) with a dwell time of 0.1 s.
Rats were divided randomly into 5 groups of six animals each (sex in half) and given 7 days to acclimatize to the facility before the experiments began. The four forms of CK were suspended in 0.5% sodium carboxymethyl cellulose (CMC-Na) solution and orally administered to rats at a dose of 20 mg/kg. A CK solution in a mixed solvent of dimethyl sulfoxide (DMSO)/castor oil/physiologic saline (3:5:92, v/v) was intravenously administered to the remaining group via the tail vein at a dose of 10 mg/kg. Blood samples were collected by retro-orbital puncture at the following times: 0.167, 0.333, 0.667, 1, 2, 3, 4, 6, 9, 12, and 24 h for the oral administration, and at 0.0083, 0.05, 0.133, 0.25, 0.5, 1, 2, 4, 6, and 9 h for the intravenous administration. Plasma samples were obtained by centrifuging a heparinized blood tube at 4000 rpm for 5 min and then stored at −70 °C until analysis.
The procedure for drug extraction from plasma samples was as follows: 0.2 mL acetonitrile, 0.2 mL plasma sample, and 10 μL IS (1 µg/mL) were added into a 1.5 mL Eppendorf-type tube. This mixture was vortexed for 1 min and then treated with 0.8 mL of methyl tert-butyl ether (MTBE) to precipitate the plasma proteins. After a mechanical vortex for 1 min and subsequent centrifugation (4000 rpm, 5 min), 0.8 mL of the supernatant was transferred and blow-dried with N2 at 40 °C in a water bath. Finally, the residue was dissolved in 120 μL of mobile phase, and then 10 μL was subjected to HPLC for analysis. […] Intra- and inter-day precision and accuracy never exceeded 15% by analyzing six replicate samples.
The CK pharmacokinetic parameters in rats, including the area under the curve (AUC(0–t) and AUC(0–∞)), mean residence time (MRT(0–t) and MRT(0–∞)), maximum concentration (Cmax), time to maximum concentration (Tmax), half-life (t1/2), apparent distribution volume (V), and total plasma clearance (CL), were derived from plasma concentration-time curves by using non-compartmental analysis (NCA) with DAS 2.0 software (Drug And Statistics, Mathematical Pharmacology Professional Committee of China, Shanghai, China). The absolute bioavailability (Fabs) was calculated from the dose-adjusted ratio of AUCp.o. to AUCi.v.. One-way analysis of variance (ANOVA) by SPSS 11.5 (SPSS Inc., Chicago, IL, USA) was conducted to compare the primary PK parameters.

[2] = test system: carrageenan-induced acute paw inflammation; experiment: Paw swelling test induced by carrageenan in rats; format: in vivo, Sprague-Dawley rats; parameters: paw volume: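 right hind paw volume measured with a plethysmometer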; details: for paw volume / paw edema: mean±SD of 6 rats; for edema inhibition: versus model group
Experimental: Rats were divided into 11 groups of six animals each (sex in half): the normal group, the model group, indomethacin group (1 mg/kg), and form I, II, III, IV groups (each form set 10 mg/kg and 20 mg/kg groups, respectively). Indomethacin and CK were ground and suspended in 0.5% CMC-Na solution. […] The same volume of saline was injected into the normal group. […] Paw edema and inhibitory rate were calculated as the following formula, and the differences among groups were compared with the t-test. Paw edema (%) = (Vn − V0)/V0 × 100%. Vn: paw volume at different time intervals after carrageenan injection. V0: paw volume before carrageenan injection. Inhibitory rate (%) = (Em − Ee)/Em × 100%. Em: paw edema of the model group. Ee: paw edema of the experimental group.

[3] = DSC thermal analysis of CK polymorphs; format: physicochemical; details: 20 K/min from 20 to 400 °C, dry nitrogen flow
Experimental: DSC measurements were performed on a DSC204 Phoenix calorimeter (NETZSCH, Selb, Germany) with a heating rate of 20 K/min from 20 to 400 °C. The dry nitrogen flow was about 50 mL/min. Data were analyzed using NETZSCH analysis software.

[4] = Pharmacokinetics after oral administration of CK polymorphs in rats (20 mg/kg); format: in vivo, Sprague-Dawley rats; details: for Fabs (absolute bioavailability): p.o. 20 mg/kg vs i.v. 10 mg/kg, dose-adjusted AUC ratio; for Tmax / t1/2z / AUC(0–t) / AUC(0–∞) / CLz/F / Cmax / Vz/F: 20 mg/kg
[5] = 10 mg/kg p.o. qd 3 days, 3h after carrageenan, listed as From IV
[6] = 10 mg/kg p.o. qd 3 days, 4h after carrageenan, listed as From IV
[7] = 10 mg/kg p.o. qd 3 days, 5h after carrageenan, listed as From IV
[8] = 10 mg/kg p.o. qd 3 days, 6h after carrageenan, listed as From IV
[9] = 20 mg/kg p.o. qd 3 days, 3h after carrageenan, listed as From IV
[10] = 20 mg/kg p.o. qd 3 days, 4h after carrageenan, listed as From IV
[11] = 20 mg/kg p.o. qd 3 days, 5h after carrageenan, listed as From IV
[12] = 20 mg/kg p.o. qd 3 days, 6h after carrageenan, listed as From IV
[13] = female rats, p.o. 20 mg/kg, individual rats 1-3
[14] = female rats, p.o. 20 mg/kg, mean ± SD (n = 3)
[15] = male rats, p.o. 20 mg/kg, mean ± SD (n = 3)
[16] = 1 mg/kg p.o. qd 3 days, 3h after carrageenan
[17] = 1 mg/kg p.o. qd 3 days, 4h after carrageenan
[18] = 1 mg/kg p.o. qd 3 days, 5h after carrageenan
[19] = 1 mg/kg p.o. qd 3 days, 6h after carrageenan

## CC(C)=CCCC(C)(OC1OC(CO)C(O)C(O)C1O)C1CCC2(C)C1C(O)CC1C3(C)CCC(O)C(C)(C)C3CCC12C [Form IV, 20-O-β-D-glucopyranosyl-20(S)-protopanaxadiol]
[1]; female rats
  AUC(0-t): 1818.83 ng·h/mL and 1232.02 ng·h/mL and 885.16 ng·h/mL
  AUC(0-∞): 897.84 ng·h/mL and 1828.44 ng·h/mL and 1234.21 ng·h/mL
  CLz/F: 371.3 mL/min/kg and 182.3 mL/min/kg and 270.2 mL/min/kg
  Cmax: 122.10 ng/mL and 340.98 ng/mL and 193.16 ng/mL
  Vz/F: 116.76 L/kg and 47.28 L/kg and 56.79 L/kg
[1]; male rats
  AUC(0-t): 540.26 ng·h/mL and 711.78 ng·h/mL and 1023.81 ng·h/mL
  AUC(0-∞): 603.16 ng·h/mL and 720.70 ng·h/mL and 1028.47 ng·h/mL
  CLz/F: 552.7 mL/min/kg and 462.5 mL/min/kg and 324.2 mL/min/kg
  Cmax: 115.38 ng/mL and 116.79 ng/mL and 267.12 ng/mL
  t1/2z: 3.99 h and 3.07 h and 3.39 h
[2]; 10 mg/kg p.o. qd 3 days, 0h (before carrageenan), listed as From IV
  paw volume: 1.60±0.05
[2]; [5]
  paw edema: 63.73±8.98%
  paw volume: 2.62±0.13
[2]; [6]
  paw edema: 60.32±7.19%
  paw volume: 2.57±0.10
[2]; [7]
  paw edema: 40.95±1.48%
  paw volume: 2.26±0.05
  edema inhibition: 18.24%
[2]; [8]
  paw edema: 30.95±10.46%
  paw volume: 2.09±0.10
  edema inhibition: 13.86%
[2]; 20 mg/kg p.o. qd 3 days, 0h (before carrageenan), listed as From IV
  paw volume: 1.62±0.05
[2]; [9]
  paw edema: 63.17±8.40%
  paw volume: 2.64±0.16
[2]; 20 mg/kg p.o. qd 3 days, 4h after carrageenan
  paw edema: 58.6 ± 3.6%
[2]; [10]
  paw edema: 58.65±3.69%
  paw volume: 2.57±0.09
[2]; [11]
  paw edema: 39.21±10.18%
  paw volume: 2.26±0.13
  edema inhibition: 21.72%
[2]; [12]
  paw edema: 31.27±12.96%
  paw volume: 2.13±0.15
  edema inhibition: 12.98%
[2]; any time point post carrageenan injection
  paw edema, difference from the model group: no statistical difference
[3]
  DSC onset of the decomposition endotherm (thermodynamical stability): 250.2 °C
[4]; female rats
  Fabs (absolute bioavailability): 4.07%
[4]; [13]
  Tmax: 3.00 h
  t1/2z: 3.63 h and 3.00 h and 2.43 h
[4]; [14]
  AUC(0–t): 1312.0 ± 471.95 ng·h/mL
  AUC(0–∞): 1320.17 ± 471.22 ng·h/mL and 1320.2 ± 471.22 ng·h/mL
  CLz/F: 274.5 ± 94.5 mL/min/kg and 275 ± 94.5 mL/min/kg
  Cmax: 218.75 ± 111.66 ng/mL and 218.8 ± 111.7 ng/mL
  Tmax: 2.3 ± 0.58 h
  Vz/F: 73.61 ± 37.67 L/kg and 73.6 ± 37.7 L/kg
  t1/2z: 3.02 ± 0.60 h and 3.0 ± 0.60 h
[4]; female, Sprague-Dawley, rat, plasma, po, female rats, p.o. 20 mg/kg, mean ± SD (n = 3), read-out: Tmax
  Tmax: 2.33 ± 0.58 h
[4]; male rats
  Fabs (absolute bioavailability): 2.59%
[4]; male rats, p.o. 20 mg/kg, individual rats 1-3
  Vz/F: 162.18 L/kg and 159.92 L/kg and 86.19 L/kg
[4]; [15]
  AUC(0–t): 758.62 ± 245.16 ng·h/mL
  AUC(0–∞): 784.11 ± 219.63 ng·h/mL
  CLz/F: 446.5 ± 115 mL/min/kg and 447 ± 115 mL/min/kg
  Cmax: 166.43 ± 87.20 ng/mL and 166.4 ± 87.20 ng/mL
  Vz/F: 136.10 ± 43.24 L/kg and 136 ± 43.2 L/kg
  t1/2z: 3.48 ± 0.47 h and 3.5 ± 0.47 h
[4]; rats, p.o. 20 mg/kg
  decrease in the bioavailability from form I to form IV: 34%

## COc1ccc2c(c1)c(CC(=O)O)c(C)n2C(=O)c1ccc(Cl)cc1 [Indomethacin, indomethacin, reference compound]
[2]; 1 mg/kg p.o. qd 3 days, 0h (before carrageenan)
  paw volume: 1.60±0.13
[2]; [16]
  paw edema: 48.00±18.21%
  paw volume: 2.35±0.15
  edema inhibition: 25.32%
[2]; [17]
  paw edema: 43.75±15.39%
  paw volume: 2.28±0.12
  edema inhibition: 29.85%
[2]; [18]
  paw edema: 30.74±10.87%
  paw volume: 2.08±0.15
  edema inhibition: 40.61%
[2]; [19]
  paw edema: 23.41±9.18%
  paw volume: 1.97±0.12
  edema inhibition: 40.46%
